Reference: patent US20140057977A1, “Induction of Arteriogenesis” (G. Pohl-Boskamp GmbH & Co. KG, priority 2012, published 2014)
Several values for one entry are separate records, joined by “and”; a condition that tells them apart may be missing. Equal entries are not always repeated. Entries after “also recorded” stand apart in the source; their conditions may differ.

How the values were obtained:
Type in all cases: in vivo
rat heart [1] = assay: Infarct size by TTC staining after 90 minutes of LAD occlusion; details: for Infarct size: 90 min LAD occlusion, percentage of the area of the left ventricle
rat heart [2] = assay: Ventricular arrhythmias during FPO, Lown classification and VPB score
rat heart [3] = assay: ST segment elevation (ECG) during final permanent LAD occlusion (FPO), rat repetitive ischemia protocol (RIP) arteriogenesis model

Compound: CC(=O)Oc1ccccc1C(=O)O [ASA+NTG-PLACEBO, acetyl salicylic acid]
- Infarct size (rat heart [1]; 5 DAYS RIP): 13.92±1.71%
- Infarct size (rat heart [1]; 5 DAYS RIP, listed as NTG-PLACEBO+ASS): 13.92±1.71%
- rats with class IIIa arrhythmias (rat heart [2]; 5 DAYS RIP, during FPO): 16.7%
- rats with class IVb arrhythmias (rat heart [2]; 5 DAYS RIP, during FPO): 83.3%
- VPB-Score (rat heart [2]; RIP (Modules 2-4)): 5.50
- ST segment elevation (rat heart [3]; 5 DAYS RIP, after FPO): 0.144±0.091 mV

Compound: CC(=O)Oc1ccccc1C(=O)O [ASA+PBS, acetyl salicylic acid]
- Infarct size (rat heart [1]; 5 DAYS RIP): 12.51±3.05%
- infarct size compared to controls (in words) (rat heart [1]; 5 DAYS RIP, listed as ASA): increase of infarct volumes
- infarct size compared to controls (in words) (rat heart [1]; 5 DAYS RIP, listed as ASS+PBS): minimally increased
- arrhythmias / VPB-Score compared to controls (in words) (rat heart [2]; 5 DAYS RIP, during FPO): higher compared to the controls
- ST segment elevation compared to controls (in words) (rat heart [3]; 5 DAYS RIP, after FPO): higher compared to the PBS control group, but there is no significance

Compound: O=[N+]([O-])O[C@H]1CO[C@H]2[C@@H]1OC[C@H]2O[N+](=O)[O-] [ISDN, isosorbide dinitrate]
- infarct size compared to controls (in words) (rat heart [1]; rat, in vivo): smaller compared to controls (treated with PBS or ISDN-Placebo), but there is no significance; also recorded: smaller; also recorded: reduced infarct volumes
- arrhythmias / VPB-Score compared to controls (in words) (rat heart [2]; rat, in vivo): less arrhythmias
- ST segment elevation compared to controls (in words) (rat heart [3]; rat, in vivo): lower ST segment elevation course; also recorded: decreased compared to the PBS group but there is no significance; also recorded: non-significantly decreased; also recorded: decreases in ST elevation

Compound: O=[N+]([O-])OCC(CO[N+](=O)[O-])O[N+](=O)[O-] [NTG, nitroglycerin]
- decrease of infarct volume compared to the control group (rat heart [1]; rat, in vivo): more than 50%
- infarct size compared to controls (in words) (rat heart [1]; rat, in vivo): significantly smaller infarct area; also recorded: decreases the size of an experimentally induced myocardial infarct
- VPB-Score (rat heart [2]; rat, in vivo): 5.77 and 3.60
- arrhythmias / VPB-Score compared to controls (in words) (rat heart [2]; rat, in vivo): more often scaled into grade 0; also recorded: reduced arrhythmias; also recorded: decreased serious arrhythmias
- rats with class 0 arrhythmias (rat heart [2]; rat, in vivo): 57.1%
- rats with class IIIa arrhythmias (rat heart [2]; rat, in vivo): 14.3%
- rats with class IVb arrhythmias (rat heart [2]; rat, in vivo): 85.7% and 42.9%
- ST segment elevation compared to controls (in words) (rat heart [3]; rat, in vivo): lower ST segment elevation course; also recorded: significantly decreased; also recorded: significantly attenuated ST elevation
